These results are taken from US20260234123A1, “Inhibitors of NLRP3” (Mwyngil Therapeutics, Inc., priority 2023, published 2026).

The first assay relates to IL1b release THP-1. Put plainly: IL1b release THP-1 (ELISA). Format: cell-based. Conditions: Homo sapiens, THP-1, read-out: THP 1 IL 1b, EC50, μM. How it is done: Example A. Primary Assays Used to Determine IL1b Release THP-1 (ELISA)
• Microbiological safety cabinet, classII (NuAire, USA) • CO2 incubator (VWR Science, USA) • Countess Automated Cell Counter (Invitrogen, USA, cat. number C10227) • Centrifuge CM 6M (Elmi, Latvia) • Serological pipettes 2, 5, 10, 25, 50, 100 ml sterile (Santa Cruz Biotechnology, Inc., USA, sc-200277, sc-200279, sc-200281, sc-200283, Sc-213234, sc-516777) • Single and multichannel pipettes 0.2-10 μL, 50-1200 μL (Eppendorf AG-Hamburg, Germany) • 50 mL PP sterile tubes (Greiner, cat. Number 210261).
• RPMI-1640 (PanEco, C330) • Sodium pyruvate (Paneco, cat. number Φ023) • Non-Essential amino acids 50× (Paneco, Φ116) • Essential amino acids 50× (Paneco, Φ115/50) • FBS (Hyclone Laboratories Inc, USA, SV30160.03) • Antibiotic-antimycotic (Gibco, USA, 15240-062) • 2-mercaptoethanol 1000×55 mM (Gibco, USA, 21985-023) • LPS-EB ultrapure (invivogen, cat. number tlrl-3pelps) • Nigericin (Sigma, cat. number N7143) • ELISA kit, IL-1beta (Cat #A-8766, Interleukin-1 beta-EIA-BEST, Vector Best). LPS Preparation (5 mg/ml): • 1. Add 1 ml of endotoxin-free water according manufacturer's protocol • 2. Vortex until complete solubilization • 3. Aliquote and store at […] for long term storage.
• 1. Add methanol to 10 mg of powder to produce the 10 mM Nigericin solution • 2. Vortex until complete solubilization • 3. Store at 4° C.
THP-1 cells were propagated in RPMI-1640 (10% FBS, Antibiotic-antimycotic 1×, non-Essential amino acids 1×, Essential amino acids 1×, Sodium pyruvate 2×, 2-mercaptoethanol 0.05 mM) at 37° C. and at 5% CO2 in an incubator.
• 1. THP-1 cells were spined at 100 g for 5 min in 50 ml tube. • 2. THP-1 cells were resuspended in warm culture medium (w/o FBS, w/o Antibiotic-antimycotic, non-Essential amino acids 1×, Essential amino acids 1×, Sodium pyruvate 2×) to the concentration 1,3×10^6 cells. • 3. THP-1 cells were primed in tube with 1 μg/ml of LPS for 4 h at 37° C. and at 5% CO2 in an incubator. • 4. THP-1 cells were stimulated with 10 μM of Nigericin (Cat #N7143-10 MG, Sigma Aldrich) for 2 h at 37° C. and at 5% CO2 in an incubator. • 5. After the full activation, the supernatant was collected and the levels of IL-1β were assessed via ELISA according manufacturer instructions (Cat #A-8766, Vector Best).
The average EC50 values are shown in Table A, wherein “A” corresponds to EC50: A≤0.5 μM, “B” corresponds to 0.5 μM<EC50≤1.0 μM, “C” 1.0 μM<EC50≤5.0 μM, “D” corresponds to 5.0 μM<EC50≤30 μM and “E” corresponds to EC50>30 μM.
As for `Cc1cc(-c2ccc(C(F)(F)F)cc2NS(C)(=O)=O)nnc1N[C@@H]1CCCN(C2CCCCC2)C1` [Compound 32, (R)—N-(2-(6-((1-Cyclohexylpiperidin-3-yl)amino)-5-methylpyridazin-3-yl)-5-(trifluoromethyl)phenyl) methanesulfonamide], the EC50 (commonly the midpoint of the concentration-response curve) was less than 0.5 µM.

The same assay, now with this note: Homo sapiens; average EC50; THP-1 cells primed with 1 μg/ml LPS 4 h, stimulated with 10 μM Nigericin 2 h; IL-1β in supernatant by ELISA; read-out: THP 1 IL 1b, EC50.
Turning to `CN1CCC[C@@H](Nc2nnc(-c3ccc(C(F)(F)F)c(N)c3N)cc2C(F)(F)F)C1` [Compound 102, 3-[6-[[(3R)-1-methyl-3-piperidyl]amino]-5-(trifluoromethyl)pyridazin-3-yl]-6-(trifluoromethyl)benzene-1,2-diamine], the EC50 is 5 to 30 µM.

On to `Cc1cc(-c2ccc(C(F)(F)F)cc2NC(=O)C(F)(F)C(F)(F)F)nnc1N[C@@H]1CCCN(C(C)C)C1` [Compound 125, 2,2,3,3,3-pentafluoro-N-[2-[6-[[(3R)-1-isopropyl-3-piperidyl]amino]-5-methyl-pyridazin-3-yl]-5-(trifluoromethyl)phenyl]propanamide], for which the half-maximal effective concentration (EC50) is 1 to 5 µM.

In the case of `CN1CCC[C@@H](Nc2nnc(-c3ccc(C(F)(F)F)c4c3NS(=O)(=O)N4)cc2C(F)(F)F)C1` [Compound 93, 6-[2,2-dioxo-4-(trifluoromethyl)-1,3-dihydro-2lambda6,1,3-benzothiadiazol-7-yl]-N-[(3R)-1-methyl-3-piperidyl]-4-(trifluoromethyl)pyridazin-3-amine], the EC50 lay in the range of 5 to 30 µM.

As to `Cc1cc(N[C@@H]2CCCN(C)C2)nnc1-c1ccc(C(F)(F)F)c2cn[nH]c12` [Compound 14, (R)-5-Methyl-N-(1-methylpiperidin-3-yl)-6-(4-(trifluoromethyl)-1H-indazol-7-yl)pyridazin-3-amine], the EC50 lay within 1 to 5 µM.

As for `Cc1cc(-c2ccc(C(F)(F)F)cc2NS(C)(=O)=O)nnc1N[C@@H]1CCCNC1` [Compound 67, (R)—N-(2-(5-methyl-6-(piperidin-3-ylamino)pyridazin-3-yl)-5-(trifluoromethyl)phenyl) methanesulfonamide], the EC50 lay within 1 to 5 µM.

Consider `Cc1cc(N[C@@H]2CCCN(CC3CCCCC3)C2)nnc1-c1ccc(C(F)(F)F)cc1NS(C)(=O)=O` [Compound 40, N-[2-[6-[[(3R)-1-(cyclohexylmethyl)-3-piperidyl]amino]-4-methyl-pyridazin-3-yl]-5-(trifluoromethyl)phenyl]methanesulfon-amide], for which the EC50 was less than 0.5 µM.

For the compound `Cc1cc(N[C@@H]2CCCN(C(C)C)C2)nnc1-c1ccc(C(F)(F)F)cc1NC(F)(F)F` [Compound 122, N-[(3R)-1-isopropyl-3-piperidyl]-5-methyl-6-[4-(trifluoromethyl)-2-(trifluoromethylamino)phenyl]-pyridazin-3-amine], the EC50 is 0.5 to 1 µM.

As to `COC(C)(C)CCN1CCC[C@@H](Nc2cc(C)c(-c3ccc(C(F)(F)F)cc3NS(C)(=O)=O)nn2)C1` [Compound 53, N-[2-[6-[[(3R)-1-(3-methoxy-3-methyl-butyl)-3-piperidyl]amino]-4-methyl-pyridazin-3-yl]-5-(trifluoromethyl)phenyl]methanesulfon-amide], the EC50 fell in the range of 1 to 5 µM.

As to `CCN1CCC[C@@H](Nc2nnc(-c3ccc(C(F)(F)F)cc3NS(C)(=O)=O)cc2C)C1` [Compound 8, (R)—N-(2-(6-((1-Ethylpiperidin-3-yl)amino)-5-methylpyridazin-3-yl)-5-(trifluoromethyl)phenyl) methanesulfonamide], the EC50 is less than 0.5 µM.

For `CCN1CCC[C@@H](Nc2cc(C)c(-c3ccc(C(F)(F)F)cc3NC(C)=O)nn2)C1` [Compound 134, (R)—N-(2-(6-((1-ethylpiperidin-3-yl)amino)-4-methylpyridazin-3-yl)-5-(trifluoromethyl)phenyl) acetamide], the EC50 was 0.5 to 1 µM.

In the case of `Cc1cc(N[C@@H]2CCCN(C(C)C)C2)nnc1-c1ccc(C(F)(F)F)cc1NC(=O)C(F)(F)F` [Compound 117, (R)-2,2,2-Trifluoro-N-(2-(6-((1-isopropylpiperidin-3-yl)amino)-4-methylpyridazin-3-yl)-5-(trifluoromethyl)phenyl) acetamide], the EC50 is less than 0.5 µM.

For `CCN1CCC[C@@H](Nc2nnc(-c3ccc(C(F)(F)F)cc3NS(=O)(=O)C3CC3)cc2C)C1` [Compound 64], the EC50 is less than 0.5 µM.

For the compound `Cc1cc(N[C@@H]2CCCN(C(C)C)C2)nnc1-c1ccc(C(F)(F)F)cc1N` [Compound 110, (R)-6-(2-Amino-4-(trifluoromethyl)phenyl)-N-(1-isopropylpiperidin-3-yl)-5-methyl pyridazin-3-amine], the EC50 was less than 0.5 µM.

For the compound `CN1CCC[C@@H](Nc2cc(C(F)(F)F)c(-c3ccc(C(F)(F)F)c4nn[nH]c34)nn2)C1` [Compound 23], the EC50 is greater than 30 µM.

For the compound `CCN1CCC[C@@H](Nc2cc(C)c(-c3ccc(C(F)(F)F)cc3NS(C)(=O)=O)nn2)C1` [Compound 5, (R)—N-(2-(6-((1-Ethylpiperidin-3-yl)amino)-4-methylpyridazin-3-yl)-5-(trifluoromethyl)phenyl) methanesulfonamide], the EC50 is less than 0.5 µM.

Regarding `Cc1cc(-c2ccc(C(F)(F)F)cc2NC(=O)C(C)C)nnc1N[C@@H]1CCCN(C(C)C)C1` [Compound 29, N-[2-[6-[[(3R)-1-isopropyl-3-piperidyl]amino]-5-methyl-pyridazin-3-yl]-5-(trifluoromethyl)phenyl]-2-methyl-propanamide], the EC50 was in the range of 1 to 5 µM.

As for `Cc1cc(N[C@@H]2CCCN(CCC(C)(C)O)C2)nnc1-c1ccc(C(F)(F)F)cc1NS(C)(=O)=O` [Compound 55, (R)—N-(2-(6-((1-(3-Hydroxy-3-methylbutyl)piperidin-3-yl)amino)-4-methylpyridazin-3-yl)-5-(trifluoromethyl)phenyl) methanesulfonamide], the EC50 lay within 1 to 5 µM.

For `Cc1cc(N[C@@H]2CCCN(C(C)C)C2)nnc1-c1ccc(C(F)(F)F)cc1NS(C)(=O)=O` [Compound 27], the EC50 was less than 0.5 µM.

As to `Cc1cc(-c2ccc(C(F)(F)F)cc2NS(C)(=O)=O)nnc1N[C@@H]1CCCN(C2CCCC2)C1` [Compound 26, (R)—N-(2-(6-((1-Cyclopentylpiperidin-3-yl)amino)-5-methylpyridazin-3-yl)-5-(trifluoromethyl)phenyl) methanesulfonamide], the EC50 is less than 0.5 µM.

`Cc1cc(-c2ccc(C(F)(F)F)cc2NC(C)C)nnc1N[C@@H]1CCCN(C(C)C)C1` [Compound 115, 6-[2-(isopropylamino)-4-(trifluoromethyl)phenyl]-N-[(3R)-1-isopropyl-3-piperidyl]-4-methyl-pyridazin-3-amine]: the EC50 is less than 0.5 µM.

Regarding `Cc1cc(-c2ccc(C(F)(F)F)c(N)c2N)nnc1N[C@@H]1CCCN(C)C1` [Compound 103, 3-[5-methyl-6-[[(3R)-1-methyl-3-piperidyl]amino]pyridazin-3-yl]-6-(trifluoromethyl)benzene-1,2-diamine], the EC50 was 5 to 30 µM.

Take `CC(C)=CCN1CCC[C@@H](Nc2cc(C)c(-c3ccc(C(F)(F)F)cc3NS(C)(=O)=O)nn2)C1` [Compound 48, (R)—N-(2-(4-Methyl-6-((1-(3-methylbut-2-en-1-yl)piperidin-3-yl)amino)pyridazin-3-yl)-5-(trifluoromethyl)phenyl) methanesulfonamide]: the 50% effective concentration (EC50) was 0.5 to 1 µM.

Take `Cc1cc(N[C@@H]2CCCN(CCO)C2)nnc1-c1ccc(C(F)(F)F)cc1NS(C)(=O)=O` [Compound 6, (R)—N-(2-(6-((1-(2-Hydroxyethyl)piperidin-3-yl)amino)-4-methylpyridazin-3-yl)-5-(trifluoromethyl)phenyl) methanesulfonamide]: the EC50 was in the range of 0.5 to 1 µM.

As for `Cc1cc(-c2ccc(C(F)(F)F)cc2NS(C)(=O)=O)nnc1N[C@@H]1CCCN(C2CCOCC2)C1` [Compound 38, (R)—N-(2-(5-Methyl-6-((1-(tetrahydro-2H-pyran-4-yl)piperidin-3-yl)amino)pyridazin-3-yl)-5-(trifluoromethyl)phenyl) methanesulfonamide], the EC50 was less than 0.5 µM.
